This note sets out measurements from patent US8143255B2, “Heteroalkyl linked pyrimidine derivatives” (S*BIO Pte Ltd., priority 2005, dated 2012).

For one assay, the target named is T1, CDK2/CyclinA (Homo sapiens, UniProt P24941).
T1 construct: purchased Invitrogen PV3267
Description: In vitro kinase activity assay (PKLight), CDK2/Cyclin A. In kind it is biochemical. To be noted: recombinant CDK2/Cyclin A, RbING substrate, 0.5 μM ATP, 2 hr. The method, then:
(§1) All assays were carried out in 384-well white microtiter plates using the PKLight assay system from Cambrex (East rutherford, N.J.). This assay platform is essentially a luminometdc assay for the detection of ATP in the reaction using a luciferase-coupled reaction. For CDK2/Cyclin A assay, the reaction mixture consisted of the following components in 25 μL assay buffer (50 mM Hepes pH 7.5, 10 mM MgCl2, 5 mM MnCl2, 5 mM BGP, 1 mM DTT, 0.1 mM sodium orthovanadate), 1.4 μg/mL of CDK2/Cyclin A complex, 0.5 μM of RbING substrate (Invitrogen, Cat # PV2939) and 0.5 μM of ATP. The compounds were tested at 8 concentrations prepared from 4-fold serial dilution starting at 10 μM. The reaction was incubated at room temperature for 2 hr. 13 μL of PKLight ATP detection reagent was added and the reaction was incubated for 10 min. Luminescence signals were detected on a multi-label plate reader (Victor^2 V 1420, Perkin-Elmer). The other kinase assays were identical except for the following differences in reagents. For FLT3 assays, the reaction contained 2.0 μg/mL FLT3 enzyme, 5 μM of poly(Glu,Tyr) substrate (Sigma, Cat # P0275) and 4 μM of ATP. For JAK2 assays, the reaction contained 0.6 μg/mL of JAK2 enzyme, 2 μM of poly(Glu,Ala,Tyr) substrate (Sigma, Cat # P3899) and 0.2 μM of ATP. […] The analytical software, Prism 4.0 (GraphPad Software Pte Ltd) was used to generate IC50 values from the data.

The target in a further assay is T2, FLT3 (Homo sapiens, UniProt P36888).
T2 construct: purchased Invitrogen PV3182
T2 sequence (P36888 27-993): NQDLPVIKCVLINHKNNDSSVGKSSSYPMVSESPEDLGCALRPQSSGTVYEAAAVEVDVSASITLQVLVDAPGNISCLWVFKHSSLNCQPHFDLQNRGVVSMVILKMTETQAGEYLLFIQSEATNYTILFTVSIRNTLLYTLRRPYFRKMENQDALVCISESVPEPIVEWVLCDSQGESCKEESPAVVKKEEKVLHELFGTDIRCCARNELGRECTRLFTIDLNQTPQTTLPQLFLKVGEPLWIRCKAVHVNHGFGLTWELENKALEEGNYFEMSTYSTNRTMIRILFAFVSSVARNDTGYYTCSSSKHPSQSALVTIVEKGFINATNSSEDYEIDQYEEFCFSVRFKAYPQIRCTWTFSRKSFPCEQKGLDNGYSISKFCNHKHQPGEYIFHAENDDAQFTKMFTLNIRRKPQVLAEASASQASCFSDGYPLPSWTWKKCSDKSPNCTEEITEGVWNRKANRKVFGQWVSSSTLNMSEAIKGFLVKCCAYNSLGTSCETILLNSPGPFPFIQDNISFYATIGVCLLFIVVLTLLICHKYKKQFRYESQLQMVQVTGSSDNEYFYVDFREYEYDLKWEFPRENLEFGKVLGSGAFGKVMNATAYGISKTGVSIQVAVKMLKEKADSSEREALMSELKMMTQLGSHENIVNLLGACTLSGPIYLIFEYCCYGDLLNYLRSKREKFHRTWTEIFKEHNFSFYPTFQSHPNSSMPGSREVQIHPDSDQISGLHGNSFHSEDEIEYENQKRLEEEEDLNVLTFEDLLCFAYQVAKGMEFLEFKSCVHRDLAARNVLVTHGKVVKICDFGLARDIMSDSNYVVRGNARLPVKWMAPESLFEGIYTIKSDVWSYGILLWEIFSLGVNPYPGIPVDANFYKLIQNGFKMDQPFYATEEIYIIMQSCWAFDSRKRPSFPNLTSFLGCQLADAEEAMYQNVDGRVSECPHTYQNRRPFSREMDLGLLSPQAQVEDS
Briefly: In vitro kinase activity assay (PKLight), FLT3. Type of assay: biochemical. To be noted: recombinant FLT3, poly(Glu,Tyr) substrate, 4 μM ATP. As to the method:
The recombinant enzymes (CDK2/CyclinA, FLT3, JAK2 and JAK2 V617F) were purchased from Invitrogen (Cat # PV3267, 3182, 4210 and 4347 respectively). All assays were carried out in 384-well white microtiter plates using the PKLight assay system from Cambrex (East rutherford, N.J.). This assay platform is essentially a luminometdc assay for the detection of ATP in the reaction using a luciferase-coupled reaction. For CDK2/Cyclin A assay, the reaction mixture consisted of the following components in 25 μL assay buffer (50 mM Hepes pH 7.5, 10 mM MgCl2, 5 mM MnCl2, 5 mM BGP, 1 mM DTT, 0.1 mM sodium orthovanadate), 1.4 μg/mL of CDK2/Cyclin A complex, 0.5 μM of RbING substrate (Invitrogen, Cat # PV2939) and 0.5 μM of ATP. The compounds were tested at 8 concentrations prepared from 4-fold serial dilution starting at 10 μM. The reaction was incubated at room temperature for 2 hr. 13 μL of PKLight ATP detection reagent was added and the reaction was incubated for 10 min. Luminescence signals were detected on a multi-label plate reader (Victor^2 V 1420, Perkin-Elmer). The other kinase assays were identical except for the following differences in reagents. For FLT3 assays, the reaction contained 2.0 μg/mL FLT3 enzyme, 5 μM of poly(Glu,Tyr) substrate (Sigma, Cat # P0275) and 4 μM of ATP. For JAK2 assays, the reaction contained 0.6 μg/mL of JAK2 enzyme, 2 μM of poly(Glu,Ala,Tyr) substrate (Sigma, Cat # P3899) and 0.2 μM of ATP. For JAK2 V617F mutant assays, the reaction contained 8.0 μg/mL of JAK2 mutant enzyme, 2 μM of poly(Glu,Ala,Tyr) substrate (Sigma, Cat # P3899) and 0.2 μM of ATP. The analytical software, Prism 4.0 (GraphPad Software Pte Ltd) was used to generate IC50 values from the data. […] IC50 values are shown below in Table 3.

The target in a further assay is T3, JAK2 (Homo sapiens, UniProt O60674).
T3 construct: purchased Invitrogen PV4210
T3 sequence (O60674 whole entry): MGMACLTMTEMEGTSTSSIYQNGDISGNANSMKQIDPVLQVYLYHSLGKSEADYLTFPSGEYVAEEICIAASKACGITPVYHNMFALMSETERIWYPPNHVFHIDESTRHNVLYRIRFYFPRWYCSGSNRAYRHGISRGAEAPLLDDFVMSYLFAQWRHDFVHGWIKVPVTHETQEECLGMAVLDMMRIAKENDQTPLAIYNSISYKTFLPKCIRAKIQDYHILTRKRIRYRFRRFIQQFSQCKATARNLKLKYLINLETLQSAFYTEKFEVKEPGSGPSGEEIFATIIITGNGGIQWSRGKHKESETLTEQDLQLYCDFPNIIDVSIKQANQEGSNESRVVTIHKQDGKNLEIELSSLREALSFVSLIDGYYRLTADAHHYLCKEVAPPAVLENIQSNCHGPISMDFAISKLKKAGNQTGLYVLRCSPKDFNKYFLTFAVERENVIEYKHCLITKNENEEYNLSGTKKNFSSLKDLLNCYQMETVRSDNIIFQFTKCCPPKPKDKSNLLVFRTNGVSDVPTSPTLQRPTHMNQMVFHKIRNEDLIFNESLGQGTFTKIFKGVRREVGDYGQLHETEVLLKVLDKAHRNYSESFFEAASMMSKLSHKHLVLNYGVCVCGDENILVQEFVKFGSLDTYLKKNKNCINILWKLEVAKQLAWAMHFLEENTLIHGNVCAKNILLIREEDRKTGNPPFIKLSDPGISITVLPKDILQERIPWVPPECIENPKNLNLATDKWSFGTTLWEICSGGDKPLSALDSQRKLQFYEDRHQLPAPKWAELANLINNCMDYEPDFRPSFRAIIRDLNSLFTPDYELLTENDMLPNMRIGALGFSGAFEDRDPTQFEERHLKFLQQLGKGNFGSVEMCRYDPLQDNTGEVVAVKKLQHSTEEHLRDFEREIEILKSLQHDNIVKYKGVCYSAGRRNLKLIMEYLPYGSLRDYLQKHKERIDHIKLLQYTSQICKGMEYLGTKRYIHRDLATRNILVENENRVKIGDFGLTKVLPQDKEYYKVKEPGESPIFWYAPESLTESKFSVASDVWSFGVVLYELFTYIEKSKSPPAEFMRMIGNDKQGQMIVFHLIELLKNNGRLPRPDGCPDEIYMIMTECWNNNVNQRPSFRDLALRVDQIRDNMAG
Description: In vitro kinase activity assay (PKLight), JAK2. Type of assay: biochemical. To be noted: recombinant JAK2, poly(Glu,Ala,Tyr) substrate, 0.2 μM ATP. As to the method: as §1

Assay [1] relates to HL60 (acute myeloid leukemia cell line). Description: Cell-based proliferation assay, HL60. To be noted: Homo sapiens, HL-60; HL60 cells, 96 h treatment. The method, then: (§2) Human cancer cell lines HL60 (acute myeloid leukemia cell line), Colo205 (colon adenocarcinoma cell line), HEL92.1.7 (erythroleukemia cell line), MV4-11 (acute myeloid leukemia cell line) and DU145 (metastatic prostate cancer cell line) were obtained from ATCC. They were cultivated in the media according to the ATCC work instructions. Colo205 and DU145 cells were seeded in 96-wells plate 5000 cells per cell and 1000 cells per well respectively. HEL92.1.7 and MV4-11 cells were seeded at 6000 cells per well while HL60 cells were seeded at 8000 cells per well in 96 well plate. The plates were incubated at 37° C., 5% CO2, for 24 h. Cells were treated with compounds at various concentrations for 96 h. Cell growth was then monitored using Celltiter96 Aqueous One Solution Cell Proliferation Assay from Promega (Madison Wis.). Dose response curves were plotted to determine GI50 values for the compounds using XL-fit (ID Business Solution, Emeryville, Calif.).

Assay [2] concerns HEL92.1.7 (erythroleukemia cell line). Briefly: Cell-based proliferation assay, HEL92.1.7. To be noted: Homo sapiens, HEL 92.1.7; HEL92.1.7 cells, 96 h treatment. The method, then: as §2
Assay [3] has as its system MV4-11 (acute myeloid leukemia cell line). Briefly: Cell-based proliferation assay, MV4-11. To be noted: Homo sapiens; MV4-11 cells, 96 h treatment. As to the method: as §2
For assay [4], the system named is Colo205 (colon adenocarcinoma cell line). Briefly: Cell-based proliferation assay, Colo205. To be noted: Homo sapiens, COLO 205; Colo205 cells, 96 h treatment. The method, then: as §2
Assay [5] has as its system DU145 (metastatic prostate cancer cell line). Description: Cell-based proliferation assay, DU145. To be noted: Homo sapiens, DU-145; DU145 cells, 96 h treatment. The method, then: as §2

Usually IC50 stands for the concentration that gives 50% inhibition. As usually defined, the GI50 is the concentration at which growth is held to half of that of the control. Read a low GI50 as greater sensitivity of the cells. Consider `CN1C/C=C/CCOc2cccc(c2)-c2ccnc(n2)Nc2ccc(OCCn3cncn3)c(c2)C1` [Compound 61], for which the IC50 on CDK2/CyclinA, at FLT3 and at JAK2 was not above 1000 nM in each case. The GI50 in assay [1], in assay [2] and in assay [3] was not above 1000 nM throughout.

For the compound `CN1C/C=C/CCOc2cccc(c2)-c2ccnc(n2)Nc2cc(ccn2)C1` [Compound 44], the 50% inhibitory concentration (IC50) was 1000 to 5000 nM on CDK2/CyclinA, more than 5000 nM at FLT3 and more than 5000 nM on JAK2. Also, the GI50 in assay [1], in assay [2] and in assay [3] was 1000 to 5000 nM in each case.

As for `C1=C/CN(C2CC2)Cc2cccc(c2)Nc2nccc(n2)-c2cccc(c2)OCC/1` [Compound 25], the half-inhibitory concentration (IC50) on CDK2/CyclinA, at FLT3 and on JAK2 was not above 1000 nM in each case.

As for `Cc1cnc2nc1-c1cccc(c1)OCC/C=C/CN(C)Cc1cccc(c1)N2` [Compound 27], the IC50 on CDK2/CyclinA, on FLT3 and on JAK2 was not above 1000 nM each time. Moreover, the 50% growth inhibitory concentration (GI50) is not above 1000 nM in assay [1]; 1000 to 5000 nM in assay [4]; not above 1000 nM in assay [2]; not above 1000 nM in assay [3]; 1000 to 5000 nM in assay [5].

Take `C1=C/CNCc2cccc(c2)Nc2nccc(n2)-c2cccc(c2)OCC/1` [Compound 22]: the IC50 on CDK2/CyclinA and on FLT3 was not above 1000 nM in each case.

`CN1C/C=C/COCC2=CC=C(O2)c2ccnc(n2)Nc2cccc(c2)C1` [Compound 62]: the IC50 at CDK2/CyclinA, at FLT3 and on JAK2 was not above 1000 nM throughout. In addition, the GI50 in assay [1] was not above 1000 nM; in assay [4], 1000 to 5000 nM; in assay [2], 1000 to 5000 nM; in assay [3], not above 1000 nM.

Turning to `CN1C/C=C/CCOc2cc(ccc2N)-c2ccnc(n2)Nc2cccc(c2)C1` [Compound 38], the IC50 at CDK2/CyclinA, at FLT3 and at JAK2 was not above 1000 nM in each case. Moreover, the concentration for 50% growth inhibition (GI50) in assay [1] was not above 1000 nM; in assay [4] it was 1000 to 5000 nM.

On to `CN1C/C=C/CCOc2cccc(c2)-c2ccnc(n2)Nc2ccc(OCCN3CCOCC3)c(c2)C1` [Compound 13], for which the IC50 on CDK2/CyclinA, at FLT3 and on JAK2 was not above 1000 nM each time. The results for the GI50 in assay [1], in assay [4] and in assay [3] were not above 1000 nM, not above 1000 nM and more than 5000 nM, respectively.

As to `CCS(=O)(=O)CCOc1ccc2cc1CN(C)C/C=C/CCOc1cccc(c1)-c1ccnc(n1)N2` [Compound 70], the IC50 on CDK2/CyclinA, on FLT3 and at JAK2 was not above 1000 nM throughout. The GI50 in assay [1], in assay [4], in assay [2] and in assay [3] was not above 1000 nM each time.

Consider `CN1C/C=C/CCOc2cccc(c2)-c2ccnc(n2)Nc2ccc(OCCN3CCCCC3)c(c2)C1` [Compound 46], for which the IC50 at CDK2/CyclinA, on FLT3 and at JAK2 was not above 1000 nM in each case. Besides, the GI50 in assay [1], in assay [2] and in assay [3] was not above 1000 nM each time.

As for `CN1C/C=C/CCOc2cc(F)cc(c2)-c2ccnc(n2)Nc2cccc(c2)C1` [Compound 35], the IC50 at CDK2/CyclinA, on FLT3 and on JAK2 was not above 1000 nM throughout. Moreover, the GI50 in assay [1], in assay [4], in assay [2], in assay [3] and in assay [5] was not above 1000 nM in each case.

On to `CN1C/C=C/COCC2=CC=C(S2)c2ccnc(n2)Nc2ccc(OCCN3CCCC3)c(c2)C1` [Compound 74], for which the IC50 on CDK2/CyclinA, on FLT3 and at JAK2 was not above 1000 nM each time. The GI50 in assay [1], in assay [2] and in assay [3] was not above 1000 nM in each case.

Take `C1=C\CNCc2cccc(c2)Nc2nccc(n2)-c2cccc(c2)OCC/1` [Compound 29]: the IC50 at CDK2/CyclinA and at FLT3 was not above 1000 nM throughout.

For `CN1C/C=C/CCOc2cccc(c2)-c2ccnc(n2)Nc2cc(N)cc(c2)C1` [Compound 81], the IC50 at CDK2/CyclinA, at FLT3 and on JAK2 was not above 1000 nM in each case. The GI50 in assay [1], in assay [2] and in assay [3] was not above 1000 nM each time.

For the compound `CN1C/C=C/CC(=O)Nc2cccc(c2)-c2ccnc(n2)Nc2cccc(c2)C1` [Compound 14], the IC50 on CDK2/CyclinA was 1000 to 5000 nM; on FLT3, 1000 to 5000 nM; on JAK2, more than 5000 nM. Also, the GI50 was more than 5000 nM in assay [1], more than 5000 nM in assay [4], more than 5000 nM in assay [2] and 1000 to 5000 nM in assay [3].
